Ends that are not written are not given here. Peptide text beside a SMILES is read from it.

In series [1] the test system is JFH-1 HCVcc-Luc. Conditions: HCVcc infection of Huh7.5.1 cells. Here is the method:
FIGS. 1A-1C. […] (A) Schematic illustration of apoE protein domains and the amino acid sequences of hEP and mEP peptides. The amino acid sequences shown are hEP-1 (SEQ ID NO: 6) and mEP (SEQ ID NO: 20). […] Huh7.5.1 cells were infected with JFH-1 HCVcc-Luc (MOI˜0.5) in the presence of hEP or mEP for 2 hours. After removal of virus and peptides, cells were further incubated for 48 hours prior to luciferase assay. Data are presented as % inhibition relative to control infections in which cells were treated with DMSO (0%). Results are expressed as mean±standard deviation (s.d.) (n=3). (C). Huh7.5.1 cells were treated with hEP or DMSO at indicated doses for 48 hours. The effect of hEP on cell viability was measured by a CellTiter Glo assay kit.
FIGS. 7A-7E. Mapping the anti-viral activity of hEP. In (A) and (B), HCVcc-luc was first mixed with indicated peptides (20 μg/ml, 2.7 μM) and then incubated with Huh7.5.1 cells for two hours at 37° C. to initiate infection. After additional 48 hours incubation, luciferase activity was measured. Results are presented as fold of inhibition relative to infections containing DMSO (n=5, mean±sd). (C) 20 μg of hEP-2 or hEP-2/ΔCys were resuspended in PBS and kept at room temperature for 30 minutes. Peptides were then mixed with 2×SDS-sample buffer without DTT and boiled for 5 minutes. Alternatively, samples were simply left unboiled or mixed with sample buffer containing DTT (2 mM). Peptide samples were then subjected to electrophoresis on a 16% tricine non-reducing gel (Invitrogen). […] (D) and (E) Mass spectrometric analysis of hEP-2 or hEP-2/ΔCys.
Detailed procedures involving the production and use of HCVpp and HCVcc have been published elsewhere (Liu et al., J Virol 2009; 83:2011-2014; Yang et al., Hepatology 2008; 48:1396-1403; Yang et al., J Biol Chem 2008; 283:8643-8653). Production procedure of HCVcc expressing firefly luciferase that was inserted between NS5A and NS5B (JFH-1 strain) was described elsewhere (Liu et al., Virology 2010; 407:160-170). Unless otherwise indicated, viruses were typically added to cells for two hours before removal. Cells were incubated for additional 48 hours followed by luciferase assay. When purification was needed, HCVcc were subjected to ultracentrifugation (SW41, 28,000×g) for 4 hours through a 20% sucrose cushion. Deidentified human sera, collected from five patients containing high-titer HCV (HCVser), were obtained.

Series [2] is described as follows: physchem.

In general, IC50 refers to the midpoint of a concentration-inhibition curve. Lower therefore signals greater potency. For `CC[C@H](C)[C@H](NC(=O)[C@@H](N)CS)C(=O)N[C@@H](CCCNC(=N)N)C(=O)N[C@@H](CC(C)C)C(=O)N[C@@H](CCC(N)=O)C(=O)N[C@@H](C)C(=O)N[C@@H](CCC(=O)O)C(=O)N[C@@H](C)C(=O)N[C@@H](Cc1ccccc1)C(=O)N[C@@H](CCC(N)=O)C(=O)N[C@@H](C)C(=O)N[C@@H](CCCNC(=N)N)C(=O)N[C@@H](CC(C)C)C(=O)N[C@@H](CCCCN)C(=O)N[C@@H](CO)C(=O)N[C@@H](Cc1c[nH]c2ccccc12)C(=O)N[C@@H](Cc1ccccc1)C(=O)N[C@@H](CCC(=O)O)C(=O)N1CCC[C@H]1C(=O)N[C@@H](CC(C)C)C(=O)N[C@H](C(=O)O)C(C)C` [hEP-5], the IC50 in series [1] is more than 10 µM.

For the molecule `CC(C)C[C@H](NC(=O)[C@H](CC(=O)O)NC(=O)[C@H](CC(=O)O)NC(=O)[C@H](C)NC(=O)[C@H](CC(=O)O)NC(=O)[C@H](CCCNC(=N)N)NC(=O)[C@H](CC(C)C)NC(=O)[C@H](CC(C)C)NC(=O)[C@H](CCCNC(=N)N)NC(=O)[C@H](CCCCN)NC(=O)[C@H](CCCNC(=N)N)NC(=O)[C@H](CC(C)C)NC(=O)[C@H](CCCCN)NC(=O)[C@H](CCCNC(=N)N)NC(=O)[C@H](CC(C)C)NC(=O)[C@H](Cc1c[nH]cn1)NC(=O)[C@H](CO)NC(=O)[C@H](C)NC(=O)[C@H](CC(C)C)NC(=O)[C@H](CCCNC(=N)N)NC(=O)[C@@H](NC(=O)[C@H](CCCNC(=N)N)NC(=O)[C@H](CC(C)C)NC(=O)[C@H](CCC(=O)O)NC(=O)[C@@H](N)CCC(=O)O)C(C)C)C(=O)O` [hEP-8], in series [1], the half-inhibitory concentration (IC50) is more than 10 µM. Usually solubility stands for how much of the substance goes into solution per volume. `CC(C)C[C@H](NC(=O)[C@H](CC(=O)O)NC(=O)[C@H](CC(=O)O)NC(=O)[C@H](C)NC(=O)[C@H](CC(=O)O)NC(=O)[C@H](CCCNC(=N)N)NC(=O)[C@H](CC(C)C)NC(=O)[C@H](CC(C)C)NC(=O)[C@H](CCCNC(=N)N)NC(=O)[C@H](CCCCN)NC(=O)[C@H](CCCNC(=N)N)NC(=O)[C@H](CC(C)C)NC(=O)[C@H](CCCCN)NC(=O)[C@H](CCCNC(=N)N)NC(=O)[C@H](CC(C)C)NC(=O)[C@H](Cc1c[nH]cn1)NC(=O)[C@H](CO)NC(=O)[C@H](C)NC(=O)[C@H](CC(C)C)NC(=O)[C@H](CCCNC(=N)N)NC(=O)[C@@H](NC(=O)[C@H](CCCNC(=N)N)NC(=O)[C@H](CC(C)C)NC(=O)[C@@H](N)CS)C(C)C)C(=O)O` [hEP-11] gave a solubility in series [2] of less than 220 µg/mL. Also, the IC50 in series [1] came to 4 µM. In the case of `CC(C)C[C@H](NC(=O)[C@H](CC(C)C)NC(=O)[C@H](CCCNC(=N)N)NC(=O)[C@H](CCCCN)NC(=O)[C@H](CCCNC(=N)N)NC(=O)[C@H](CC(C)C)NC(=O)[C@H](CCCCN)NC(=O)[C@H](CCCNC(=N)N)NC(=O)[C@H](CC(C)C)NC(=O)[C@@H](N)CS)C(=O)N[C@@H](CCCNC(=N)N)C(=O)N[C@@H](CS)C(=O)O` [hEP-12, CLRKLRKRLLRC] (H-CLRKLRKRLLRC-OH; N-terminus and C-terminus assumed), the solubility in series [2] is less than 220 µg/mL. Also, the concentration for half-maximal inhibition (IC50) in series [1] was more than 10 µM. The corresponding values for “CEEIRARLSTHLRKMRKRLMRDADDLQKRLAVY [mEP-2]” are more than 220 µg/mL and more than 10 µM. On the same counts, the results for “CEELRVRLASHLRKLRKRLLRDADDLQKRLAVY [hEP-2]” are more than 220 µg/mL and 0.5 µM. On the same counts, the results for “CVDRYEARLRARALKDRQKRLLKELSLLVRHLD [Scrambled, reference compound]” are more than 220 µg/mL and more than 10 µM. Consider CVRLASHLRKLRKRLLRDADDL [hEP-4], for which the solubility in series [2] is less than 220 µg/mL. In addition, the concentration for half-maximal inhibition (IC50) in series [1] was more than 10 µM. On the same counts, the results for CVRLASHLRKLRKRLLRDADDLQKRLAVY [hEP-10] are more than 220 µg/mL and 0.8 µM. On the same counts, the results for “EELRVRLASHLRKLRKRLLRDADDLQKRLAVY [hEP-2/ΔCys]” are more than 220 µg/mL and more than 10 µM. Regarding LRVRLASHLRKLRKRLLRDADDLQKRLAVY [hEP-7], in series [1], the concentration for half-maximal inhibition (IC50) is more than 10 µM. The same measure, in the same setting: as for “VRLASHLRKLRKRLLRDADDLIRLQAEAFQARLKSWFEPLV [hEP-6]”, the figure is more than 10 µM; as for VRLASHLRKLRKRLLRDADDLQKRLAVY [hEP-9], more than 10 µM.

For the origin of these results see patent publication US10125184B2, “Apolipoprotein E polypeptides and their use” (priority 2011, dated 2018).
